{
  "source": "patent US20160177395A1",
  "about": "“BIOMARKERS FOR THE PREDICTION OF RENAL INJURY” (priority 2007, published 2016)",
  "tested_on": "kidney tissues of treated or untreated rats",
  "experiment": "Real-time qRT-PCR of marker transcripts in kidney tissue panel, discovery stage (Table 22)",
  "type": "in vivo, rat",
  "set-up": "AI502869_DB71_seg0 normalized Real Time PCR expression: unit not given beside the values",
  "settings": "listed as Cis",
  "experimental": "Before RT preparation the RNA was treated with DNA-free (Ambion, cat. No. AM1906) DNase treatment and removal—according to manufacturer protocol. DNase procedure was repeated until no DNA is detected in a PCR reaction using the RNA samples.\nThe mixture is then incubated for 5 min at 65° C. and then quickly chilled on ice. Thereafter, 20 μl of 5× SuperscriptII first strand buffer (Invitrogen, Cat. No. Y00146), 9.6 μl 0.1M DTT (Invitrogen, Cat. No. Y00147) and 160 units RNasin (Promega, Cat. No. N251A) are added, and the mixture is incubated for 10 min at 25° C., followed by further incubation at 42° C. for 2 min. […] The resulting cDNA is diluted 1:20 in TE buffer (10 mM Tris pH=8, 1 mM EDTA pH=8).\ncDNA (5 μl), prepared as described above, is used as a template in Real-Time PCR reactions using the SYBR Green I assay (PE Applied Biosystem) with specific primers in 100 nM concentration if not indicated otherwise and UNG Enzyme (Eurogentech or equal) Amplification is effected as follows: 50° C. for 2 min, 95° C. for 10 min, and then 40 cycles of 95° C. for 15 sec, followed by 60° C. for 1 min (if not indicated otherwise). Amplification step is followed by dissociation step. Detection is performed by using the PE Applied Biosystem SDS 7000. The cycle in which the reactions achieved a threshold level (Ct) of fluorescence is registered and is used to calculate the relative transcript quantity in the RT reactions. Non-detected samples are assigned Ct value of 41 and are calculated accordingly. The relative quantity is calculated using the equation Q=efficiencŷ-Ct. The efficiency of the PCR reaction is calculated from a standard curve, created by using serial dilutions of several reverse transcription (RT) reactions. To minimize inherent differences in the RT reaction, the resulting relative quantities are normalized to normalization factor calculated as follows: […]\nThe relative quantity (Q) of each housekeeping gene in each sample is calculated as described above. In order to calculate the “relative Q relative to MED” each Q for each HSKP gene is divided by the median quantity of this gene in all panel samples. To finally achieve the normalization factor of each sample the geometric mean of all four “relative Q relative to MED” was calculated. The normalization factor was then used for further calculations.\nThe markers of the present invention were tested with regard to their expression in a panel of kidney tissues samples from treated and control rats. Unless otherwise noted, all experimental data relates to the novel polynucleotides and proteins of the present invention, named according to the segment being tested (as expression was tested through RT-PCR as described). Tests were then performed as described in the “Materials and Experimental Procedures” section above.\nThe qRT-PCR measurements were normalized according to each samples normalization factor as described in “RT Preparation and Real-Time qRT-PCR Analysis” and further multiplied by a constant factor for ease of viewing.",
  "key": {"[1]": {"settings": "rat kidney, day1, individual animals (F and M)"}, "[2]": {"settings": "rat kidney, day1, individual animals"}},
  "note": "Where “and” joins values, the source holds several entries; their conditions need not be identical. Equal values may be shown once.",
  "data": [
    {"smiles": "N.N.[Cl][Pt][Cl]", "note": "[Cisplatin]", "values": [
      {"measurement": "normalized Real Time PCR MUSCYCG1R_DB81_seg19-20", "setting": "kidney, female rats, day1", "value": "0.86 and 0.81"},
      {"measurement": "normalized Real Time PCR RATRAB13X_DB81_seg15-17", "setting": "kidney, female rats, day1", "value": "0.82 and 1.11 and 1.1"},
      {"measurement": "normalized Real Time PCR RATRAB13X_DB81_seg22", "setting": "kidney, female rats, day1", "value": "0.88 and 0.87 and 1.02"},
      {"measurement": "normalized Real Time PCR W33294_DB81_seg44", "setting": "kidney, female rats, day1", "value": "1 and 0.95"},
      {"measurement": "normalized Real Time PCR MUSCYCG1R_DB81_seg19-20", "setting": "kidney, female rats, day5", "value": "2.77 and 3.44 and 2.45"},
      {"measurement": "normalized Real Time PCR RATRAB13X_DB81_seg15-17", "setting": "kidney, female rats, day5", "value": "1.37 and 1.53"},
      {"measurement": "normalized Real Time PCR RATRAB13X_DB81_seg22", "setting": "kidney, female rats, day5", "value": "1.71 and 1.92 and 1.99"},
      {"measurement": "normalized Real Time PCR W33294_DB81_seg23", "setting": "kidney, female rats, day5", "value": "2.03 and 1.99 and 1.58"},
      {"measurement": "normalized Real Time PCR W33294_DB81_seg44", "setting": "kidney, female rats, day5", "value": "2.31 and 2.19 and 2.15"},
      {"measurement": "normalized Real Time PCR MMU09507_DB81_seg15", "setting": "kidney, female rats, day28", "value": "8.1 and 6.58 and 5.53"},
      {"measurement": "normalized Real Time PCR MUSCYCG1R_DB81_seg19-20", "setting": "kidney, female rats, day28", "value": "1.64 and 2.47 and 1.67"},
      {"measurement": "normalized Real Time PCR RATRAB13X_DB81_seg15-17", "setting": "kidney, female rats, day28", "value": 1.33},
      {"measurement": "normalized Real Time PCR RATRAB13X_DB81_seg22", "setting": "kidney, female rats, day28", "value": "0.61 and 0.65 and 0.89"},
      {"measurement": "normalized Real Time PCR W33294_DB81_seg23", "setting": "kidney, female rats, day28", "value": "0.95 and 0.97 and 0.82"},
      {"measurement": "normalized Real Time PCR MUSCYCG1R_DB81_seg19-20", "setting": "kidney, male rats, day1", "value": "0.85 and 0.71 and 1.18"},
      {"measurement": "normalized Real Time PCR RATRAB13X_DB81_seg15-17", "setting": "kidney, male rats, day1", "value": "0.73 and 0.84 and 0.98"},
      {"measurement": "normalized Real Time PCR RATRAB13X_DB81_seg22", "setting": "kidney, male rats, day1", "value": "0.65 and 0.66 and 1.11"},
      {"measurement": "normalized Real Time PCR W33294_DB81_seg23", "setting": "kidney, male rats, day1", "value": "0.59 and 0.49 and 0.64"},
      {"measurement": "normalized Real Time PCR W33294_DB81_seg44", "setting": "kidney, male rats, day1", "value": "0.6 and 0.84 and 0.96"},
      {"measurement": "normalized Real Time PCR MUSCYCG1R_DB81_seg19-20", "setting": "kidney, male rats, day5", "value": "1.83 and 1.47 and 2.33"},
      {"measurement": "normalized Real Time PCR RATRAB13X_DB81_seg15-17", "setting": "kidney, male rats, day5", "value": "1.8 and 1.03 and 1.77"},
      {"measurement": "normalized Real Time PCR RATRAB13X_DB81_seg22", "setting": "kidney, male rats, day5", "value": "1.53 and 1.2"},
      {"measurement": "normalized Real Time PCR W33294_DB81_seg44", "setting": "kidney, male rats, day5", "value": "1.47 and 1.51"},
      {"measurement": "normalized Real Time PCR MUSCYCG1R_DB81_seg19-20", "setting": "kidney, male rats, day28", "value": "2.13 and 1.97 and 2.21"},
      {"measurement": "normalized Real Time PCR RATRAB13X_DB81_seg15-17", "setting": "kidney, male rats, day28", "value": 0.95},
      {"measurement": "normalized Real Time PCR RATRAB13X_DB81_seg22", "setting": "kidney, male rats, day28", "value": "0.66 and 0.76 and 0.65"},
      {"measurement": "normalized Real Time PCR W33294_DB81_seg23", "setting": "kidney, male rats, day28", "value": "0.95 and 0.82 and 0.88"},
      {"measurement": "normalized Real Time PCR W33294_DB81_seg44", "setting": "kidney, male rats, day28", "value": "0.83 and 0.89"},
      {"measurement": "H33998_DB71_seg19 normalized Real Time PCR", "setting": "[1]", "value": "0.85 and 1 and 0.87 and 0.65 and 0.75 and 1.14"},
      {"measurement": "MUSCYCG1R_DB81_seg15-17 normalized Real Time PCR", "setting": "[1]", "value": "0.77 and 0.85 and 0.72 and 0.54 and 0.35 and 0.67"},
      {"measurement": "RATLRFI_DB71_seg9 normalized Real Time PCR", "setting": "[1]", "value": "1.49 and 0.3 and 0.57 and 0.24 and 0.2 and 0.37"},
      {"measurement": "RATRAB13X_DB71_seg11-13 normalized Real Time PCR", "setting": "[1]", "value": "0.91 and 1.09 and 0.87 and 1.15"},
      {"measurement": "RNU24174_DB71_seg8 normalized Real Time PCR", "setting": "[1]", "value": "0.57 and 0.32 and 0.36 and 0.2 and 0.27 and 0.69"},
      {"measurement": "W41270_DB81_seg11 normalized Real Time PCR", "setting": "[1]", "value": "1.11 and 0.86 and 0.76 and 0.33 and 0.63 and 0.71"},
      {"measurement": "W64472_DB81_seg2 normalized Real Time PCR", "setting": "[1]", "value": "0.8 and 0.54 and 0.55 and 0.3 and 0.51 and 0.92"},
      {"measurement": "W83813_DB81_seg27 normalized Real Time PCR", "setting": "[1]", "value": "1.1 and 0.97 and 0.99 and 0.5 and 0.66 and 0.94"},
      {"measurement": "AA686189_DB71_seg6 normalized Real Time PCR expression", "setting": "[2]", "value": "0.7 and 0.44 and 0.66 and 0.48 and 0.42 and 0.68"},
      {"measurement": "AA799594_DB71_seg0 normalized Real Time PCR expression", "setting": "[2]", "value": "0.39 and 0.98 and 0.59 and 0.99 and 0.87"},
      {"measurement": "AA964541_DB71_seg0 normalized Real Time PCR expression", "setting": "[2]", "value": "0.88 and 0.58 and 0.41 and 0.4 and 0.29 and 0.56"},
      {"measurement": "AI045075_DB71_seg6 normalized Real Time PCR expression", "setting": "[2]", "value": "1.01 and 0.68 and 0.79 and 0.64 and 0.62 and 1.09"},
      {"measurement": "AI454051_DB71_seg0 normalized Real Time PCR expression", "setting": "[2]", "value": "0.94 and 1.22 and 1 and 0.65 and 0.96 and 1.45"},
      {"measurement": "AI502869_DB71_seg0 normalized Real Time PCR expression", "setting": "[2]", "value": "0.67 and 0.78 and 0.74 and 0.87 (2×) and 0.84"}
    ]}
  ]
}
